Assay results as given in patent publication US7691858B2, “Kinase inhibitors and methods of use thereof” (TargeGen, Inc., priority 2006, dated 2010).

What was measured:
PI3Kγ (p120γ) = biological target: T1, PI3Kγ (p120γ) (Homo sapiens, UniProt P48736); assay: PI3K luminescence kinase assay (Kinase-Glo), IC50; assay type: biochemical; settings: Table 1, mean of triplicate values
T1 construct: purchased Upstate Cell Signaling Solutions / Upstate USA
Protocol: The IC50 value for compounds were determined using a luminescence-based kinase assay with recombinant phosphatidylinositol 3-kinase-p120γ (PI3K) obtained from Upstate Cell Signaling Solutions. […] The reaction was initiated by the addition of 10 μL of ATP to a final assay concentration of 3 μM. After the reaction was to proceed for 90 min, 50 μL of Kinase-Glo reagent (Promega) was added to terminate the reaction. This solution was then allowed to proceed for an additional 10 min to maximize the luminescence reaction. […] Two control reactions were also ran: one containing no compound and the second containing neither compound nor the phosphatidylinositol 4,5-bisphosphate substrate. Data from four wells were then averaged and used to determine IC50 values for the test compounds. IC50 values were derived from experimental data using the non-linear curve fitting capabilities of Prism (Version 4; GraphPad Software).

four isoforms of PI3K = assay: PI3K isoform profiles; assay type: biochemical
Protocol: Identification of PI3K isoform-selective inhibitors.
Kinase assays: For PI3K assays, 40 μL reaction buffer (20 mM Tris, 4 mM MgCl2, 10 mM NaCl, pH 7.4) containing 50 μM D-myo-phosphatidylinositol 4,5-bisphosphate substrate (Echelon Biosciences, Salt Lake City, Utah) and the desired PI3K isoform (Upstate USA, Charlottesville, Va.) were aliquoted to 96 well plates; kinase concentrations were 250-500 ng/well, such that linear kinetics were achieved over 90 min. The compound to be tested was then added as 2.5 μL of a DMSO stock to final concentration range of 100 μM. to 1 nM. Reactions were initiated by addition of 10 μL of ATP to a final concentration of 3 μM, and after 90 min 50 μL of Kinase-Glo reagent (Promega, Madison, Wis.) added to quantify residual ATP levels; luminosity was measured using an Ultra 384 instrument (Tecan, Durham, N.C.). Control reactions omitting either test compound or substrate were also performed. IC50 values were derived from experimental data by non-linear curve fitting (Prism Version 4; GraphPad Software, San Diego, Calif.).

T1 sequence (P48736 whole entry): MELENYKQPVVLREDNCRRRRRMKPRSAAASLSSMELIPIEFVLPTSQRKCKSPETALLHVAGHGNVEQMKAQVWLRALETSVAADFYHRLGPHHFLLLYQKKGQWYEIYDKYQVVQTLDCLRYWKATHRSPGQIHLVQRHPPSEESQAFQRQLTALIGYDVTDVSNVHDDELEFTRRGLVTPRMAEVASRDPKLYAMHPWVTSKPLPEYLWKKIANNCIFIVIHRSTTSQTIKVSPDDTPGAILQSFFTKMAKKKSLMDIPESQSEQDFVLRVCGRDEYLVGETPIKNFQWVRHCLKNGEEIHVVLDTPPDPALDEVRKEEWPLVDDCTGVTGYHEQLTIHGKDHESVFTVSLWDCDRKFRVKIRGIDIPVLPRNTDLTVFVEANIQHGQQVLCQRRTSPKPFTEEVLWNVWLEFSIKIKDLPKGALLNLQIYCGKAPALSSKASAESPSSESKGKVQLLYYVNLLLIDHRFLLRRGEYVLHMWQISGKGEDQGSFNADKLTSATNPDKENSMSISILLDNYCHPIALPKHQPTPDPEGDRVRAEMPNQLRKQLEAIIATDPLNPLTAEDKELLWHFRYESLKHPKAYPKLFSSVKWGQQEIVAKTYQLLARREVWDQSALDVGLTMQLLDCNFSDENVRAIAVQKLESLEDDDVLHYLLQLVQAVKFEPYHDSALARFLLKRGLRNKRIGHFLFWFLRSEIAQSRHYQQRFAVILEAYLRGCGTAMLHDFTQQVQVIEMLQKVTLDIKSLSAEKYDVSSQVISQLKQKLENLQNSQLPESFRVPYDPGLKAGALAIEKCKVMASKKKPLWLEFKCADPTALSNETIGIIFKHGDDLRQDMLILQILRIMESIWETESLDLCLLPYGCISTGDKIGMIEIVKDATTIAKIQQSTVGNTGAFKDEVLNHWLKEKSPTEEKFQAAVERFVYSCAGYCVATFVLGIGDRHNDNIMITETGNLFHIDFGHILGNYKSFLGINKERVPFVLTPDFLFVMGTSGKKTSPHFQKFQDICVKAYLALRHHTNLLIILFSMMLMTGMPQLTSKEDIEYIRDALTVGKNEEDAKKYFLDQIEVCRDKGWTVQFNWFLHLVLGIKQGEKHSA

IC50 (PI3Kγ (p120γ)): 85 nM
SMILES: Nc1nc(N)c2nc(-c3cccc4[nH]ccc34)cnc2n1 [Compound III, 6-(1H-Indol-4-yl)pteridine-2,4-diamine]
PI3K isoform selectivity (four isoforms of PI3K): less selective
